# Experimental data reported in US20100292306A1, “Compositions And Methods For The Treatment Of Muscular Dystrophy” (priority 2005, published 2010).
# Residues, ends and D or L forms follow the SMILES beside them. *: point of attachment. Cbz = O=C(OCc1ccccc1)*
# Key:
# IκB-α and phospho-IκB-α = test: Western blot of phospho-IκB-α and IκB-α in costal diaphragm after proteasomal inhibition with MG132; format: in vivo, nondystrophic and mdx mice
# Method: The influence of the proteasomal inhibitor MG132 on the cytosolic expression of IκB-α and Pi-IκB-α was determined by administering 5 month nondystrophic and mdx mice MG132 (1 mg/kg, intraperitoneal) or vehicle (DMSO) in vivo 2 h prior to euthanization and isolation of the diaphragm. The individual intact costal diaphragms from the MG132 group were then exposed to MG132 ([…] in HEPES Ringer) in vitro for another 2 h while the costal diaphragms from the vehicle group were exposed to HEPES Ringer and vehicle. This procedure of combining in vivo and in vitro exposure to MG was used to maximize inhibition of proteasomal degradation and facilitate the cytosolic accumulation of Pi-IκB-α and IκB-α in the MG132 treated preparations. […]
# Cytosolic and nuclear extracts were obtained by homogenizing individual muscles at a concentration of 1 mg wet weight per 18 μl of low salt lysis buffer (LSLB: 10 mM HEPES, 10 mM KCl, 1.5 mM MgCl2, 0.1 mM EDTA, 0.1 mM EGTA, 1 mM dithiothreitol, 1.0 mg/ml benzamidine, 0.5 mM phenylmethylsulfonyl fluoride, 4.0 μl/ml protease inhibitor cocktail Sigma #8340, 10 μl/ml phosphatase inhibitor Sigma #P2850, pH 7.9. See Kumar et al. (2003); Carlson et al. (2005)). […] Pellets were subsequently washed twice (50 μl of LSLB) and resuspended in ice-cold high-salt lysis buffer (HSLB: 20 mM HEPES (pH 7.9), 420 mM NaCl, 1 mM EDTA, 1 mM EGTA, 25% glycerol, 1 mM dithiothreitol, 0.5 mM phenylmethylsulfonyl fluoride, 1.0 mg/ml benzamidine, 4 μl/ml protease inhibitor cocktail, 10 μl/ml phosphate inhibitor; 4 μl/mg wet […] and centrifuged (13,000 rpm, 6 min, 4° C.). The supernatant (nuclear extract) was stored at −80° C. Protein concentration was determined using the Bradford assay (Bio-Rad 500-0006) in a standard 96 well plate.
# Muscle proteins and immunoprecipitates (20 μg) were separated by SDS-PAGE under reducing conditions and transferred to PVDF membranes (Bio-Rad). […] Equal loading of proteins for cytosolic and whole cell extracts was evaluated by developing a blot for GAPDH. […]
# mdx mice = test: Noninvasive whole body tension (WBT) measurement of forward pulling tensions; format: in vivo
# Source text: FIG. 18 presents individual “forward pulling tensions” (FPTs; upward deflections) recorded from a PDTC-treated mouse (Series 2) using the whole body tension (WBT) technique (Carlson and Makiejus, 1990). The rank order of FPTs from highest to lowest is indicated by the numbers in the figure. […] In the Series 2 experiments, WBT measurements were obtained from each of the saline-injected and PDTC-injected mice on days 0, 9, 21 and 40 of the experiment.
# As a first step in examining the potential effects of PDTC treatment on WBT tension development, the slope of the decline in FPTs was evaluated for each recording session for each mouse examined in the Series 2 experiments (FIG. 19A, 19B). This measure essentially provides a “fatigue index” (FI) since the slope of the decline in FPTs is a direct measure of the average magnitude of the decline in FPT per individual pull for rank-ordered pulls number 2 through 10. If 10 individual pulls obtained during the recording session have identical magnitudes representing the highest FPT, then the FI equals 0. In contrast, a 50% reduction in FPT per pull would produce an FI equal to −0.5.
# To examine the potential effect of PDTC treatment on FI in age matched adult mdx mice, a pre-treatment FU was obtained during a typical recording session from each of 10 mdx mice used in the Series 2 investigations (age 9.5 to 16 months at beginning of study). Five of the mice were subsequently treated with daily injections of vehicle (HEPES buffered Ringer's solution) and 5 of the mice were treated with daily injections of 50 mg/kg PDTC. Recordings for each of the mice were subsequently obtained on days 9, 21, and 40 of the treatment period (e.g., FIG. 19). To determine the potential effects of treatment on FI, the FIs obtained on days 9, 21, and 40 (e.g., FIG. 19) were each normalized to the pre-treatment FI for each of the 10 mice used in the study. […] A decrease in the FI indicating a reduction in the average loss of tension per pull during the course of the study would produce normalized FIs less than one, no change in FI would be associated with normalized FIs equal to 1.0, and increases in FI would produce normalized FIs greater than 1.0.
# Mdx (C57 Bl10-mdx) and nondystrophic (C57Bl10-SnJ) mice were obtained from Jackson laboratories and bred under conditions approved by the Institutional Animal Care and Use Committee (IACUC). All studies were performed in accordance with the guidelines provided by the IACUC. Male and female PDTC treated mdx mice received daily intraperitoneal (ip) injections of 50 mg/kg pyrollidine dithiocarbamate (PDTC; Sigma P8765) dissolved in sterile-filtered (0.2 μm) HEPES-buffered Ringers solution (147.5 mM NaCl, 5 mM KCl, 2 mM CaCl2, 11 mM glucose, 5 mM Hepes, pH 7.35). Age- and gender-matched groups of vehicle-treated mice received corresponding injections of HEPES Ringers. See Carlson et al., 2005. The PDTC experiments were conducted on two series of mature adult mdx mice (9.5-16 month; 19-20 months) and on a series of young adult (1 month) mice. In each case, the mice in the experimental and vehicle-treated groups were matched according to age and gender with an equal number of males and females in each group. WBT tension measurements were obtained prior to initiating treatment and on multiple occasions following at least 3 weeks (20 days) of treatment.
# A group of 30 day-old mdx mice were exposed to daily ip injections (30 day) of 40 mg/kg UDCA (Sigma #5127; 2 mg/ml; N=12 experimental) in an isotonic saline vehicle (1.02% NaCl, pH 8.4,) or a synthetic taurine derivative of UDCA (tauroursodeoxycholic acid, TUDCA, SpA Laboratorio Farmacologico, Cenate Sotto, Italy; 6 mg/ml; N=4 experimental) administered in a saline vehicle (NaCl 6 g/l, KCl 0.3 g/l, CaCl2 0.2 g/l, Na acetate 4 g/l, 300 mosM/l, pH 6.1).
# WBT measurements were obtained as indicated in Examples 5 through 7 by placing an approximately 0.5 inch square piece of adhesive tape around the tail about 1 inch from the tip. […]
# nuclear p65 activation = test: TransAM NF-κB ELISA of nuclear p65 activation in mdx costal diaphragm; format: in vivo, mdx mice
# Method: Cytosolic and nuclear fractions were obtained from isolated costal diaphragm using techniques that were slightly modified from Kumar and Boriek (2003). The muscles were removed from vehicle and drug-treated euthanized mdx mice at the end of the treatment period, and were flash-frozen and stored at −80° C. for a period of 1 to 4 weeks. The muscles were then thawed and weighed before being homogenized on ice using a mortar and pestle in low salt lysis (LSL) buffer (1 mg muscle wet weight/18 μl solution; in mM: 10 HEPES, 10 KCl, 1.5 MgCl2, 0.1 EDTA, 0.1 EGTA, 1 dithiothreitol (DTT), 0.5 phenylmethylsulfonylfluoride (PMSF); 0.5 mg/ml benzamidine, 4.0 μl/ml protease inhibitor cocktail Sigma #8340 (PIC) to produce the following final concentrations—2.1 μg/ml leupeptin, 3.85 μg/ml aprotinin, 0.416 mM AEBSF (Sigma A8456), 16 μM bestatin, 6 μM pepstatin A, 5.6 μM E64; pH 7.9). To lyse the cells, the ground tissue was then subjected to 2 freeze-thaw cycles (5 min freeze on dry ice followed by thawing at room temperature), and was subsequently vortexed and centrifuged (13,000 rpm, 15 s). The supernatant cytosolic extract was immediately frozen (−80° C.) for subsequent analyses as needed, while the nuclear pellet was washed in 50 μl LSL (2 times) before being re-suspended on ice in a high salt nuclear extraction buffer (in mM: 20 HEPES, 420 NaCl, 1 EDTA, 1 EGTA, 1 DTT, 0.5 PMSF; 25% glycerol, 0.5 mg/ml benzamidine, 4.0 μl/ml PIC; pH 7.9) at a ratio of 4 μl of solution per mg muscle wet weight. Preparations were incubated on ice for 30 min and vortexed for 10 s every 5 min before being centrifuged (13,000 rpm, 6 min) at 4° C. The supernatant nuclear extract was then removed and frozen (−80° C.) for subsequent analyses. Potential contamination of nuclear extracts with cytoplasmic proteins was less than 5%. Protein determinations for each fraction were obtained using the Bradford assay.
# The Trans-Am assay (Active Motif; Carlsbad, Calif.) was used to determine nuclear NF-κB activation in nuclear fractions which were applied to the 96 well ELISA plates at 2-20 μg protein. The p65 primary antibody (catalogue number 40096) was used to detect p65 bound to oligonucleotide in vehicle and drug-treated preparations in accordance with kit instructions. A nuclear extract from Jurkat cells was routinely run as a positive control in association with each set of control and experimental samples.
# Horizontal dashed lines indicate average levels observed in nondystrophic, vehicle, and UDCA treated preparations as indicated. In each case, percent recovery is determined by dividing the mean improvement observed in the UDCA treated preparation (UDCA-vehicle) from the deficit observed in the vehicle-treated preparation (nondystrophic-vehicle mdx). Mdx mice were treated for 30 days beginning at 1 month of age. Horizontal dashed lines in (A) and (B) representing nondystrophic values were obtained from a cohort of nondystrophic mice at 2 months of age. […] The results were obtained from two separate groups of vehicle and UDCA treated preparations that were assayed using two different 96 well plates. For each plate, the absorbance for each sample was normalized to the average absorbance determined for the vehicle-treated preparations on that plate. […] Millman et al., 2007. N is the number of mice and preparations in each condition. Shown are the means and standard errors. […] indicate p<0.05 and p<0.01, respectively, between vehicle and UDCA treated preparations. […]
# [1] = UDCA 30 days from 1 month of age
# [2] = UDCA 30 days, (UDCA-vehicle)/(nondystrophic-vehicle mdx)
compound,measurement,setting,value
"CC(C)C[C@@H](C=O)NC(=O)[C@H](CC(C)C)NC(=O)[C@H](CC(C)C)NC(=O)OCc1ccccc1 [MG132, Z-leu-leu-leu-al] (Cbz-Leu-Leu-Leu-aldehyde)",increase in proportion of phosphorylated IκB-α,"IκB-α and phospho-IκB-α; mdx diaphragm cytosolic extracts, not significant",1.3 fold
same,expression of cytosolic IκB-α,IκB-α and phospho-IκB-α; nondystrophic and mdx preparations,not significantly increased
same,proportion of phosphorylated IκB-α,"IκB-α and phospho-IκB-α; nondystrophic diaphragm, cytosol and whole cell extracts, MG132 1 mg/kg ip 2 h then 50 mM in vitro 2 h, p<0.05",doubling
"C[C@H](CCC(=O)NCCS(=O)(=O)O)[C@H]1CC[C@H]2[C@@H]3[C@@H](O)C[C@@H]4C[C@H](O)CC[C@]4(C)[C@H]3CC[C@]12C [TUDCA, tauroursodeoxycholic acid]",effectiveness compared with UDCA,"mdx mice; daily ip 30 days in 30 day-old mdx mice, TUDCA 6 mg/ml, N=4",No differences
"C[C@H](CCC(=O)O)[C@H]1CC[C@H]2[C@@H]3[C@@H](O)C[C@@H]4C[C@H](O)CC[C@]4(C)[C@H]3CC[C@]12C [UDCA, ursodeoxycholic acid]",recovery towards values in mature nondystrophic preparations,nuclear p65 activation; 30 day UDCA treatment,42%
same,reduction in nuclear p65 activation,"nuclear p65 activation; 30 day UDCA treatment, p<0.05",34%
same,mean absorbance relative to vehicle-treated preparations,nuclear p65 activation; [1],approximately 66%
same,increase in WBT5 above vehicle-treated,mdx mice; [1],about 21%
same,increase in WBT10 above vehicle-treated,mdx mice; [1],about 21%
same,recovery of the dystrophic deficit in WBT5,mdx mice; [2],27%
same,recovery of the dystrophic deficit in WBT10,mdx mice; [2],24%
